Assay results as given in patent US9353082B2, “Pharmaceutical compounds” (BIAL—PORTELA & CA, S.A., priority 2008, dated 2016).

Columns and labels:
FAAH [1] = biological target: T1, FAAH (Mus musculus, UniProt O08914); assay: In vivo FAAH inhibition after oral dosing, remaining activity in brain homogenate (BRh, central nervous tissue); design: species or system NMRI mice; conditions: brain homogenate, low value = strong inhibitor; for In Vivo BRh 3 mg · kg · 8 h (remaining FAAH activity): 3 mg/kg oral; for In Vivo BRh 3 mg·kg 8 h (remaining FAAH activity, % of control): 8 h after dosing
T1 construct: A fragment of liver, left lung lobe and brain without cerebellum were removed; from tissue; host or cells: male NMRI mice; brain (without cerebellum) and liver homogenates
T1 sequence (O08914 1-579): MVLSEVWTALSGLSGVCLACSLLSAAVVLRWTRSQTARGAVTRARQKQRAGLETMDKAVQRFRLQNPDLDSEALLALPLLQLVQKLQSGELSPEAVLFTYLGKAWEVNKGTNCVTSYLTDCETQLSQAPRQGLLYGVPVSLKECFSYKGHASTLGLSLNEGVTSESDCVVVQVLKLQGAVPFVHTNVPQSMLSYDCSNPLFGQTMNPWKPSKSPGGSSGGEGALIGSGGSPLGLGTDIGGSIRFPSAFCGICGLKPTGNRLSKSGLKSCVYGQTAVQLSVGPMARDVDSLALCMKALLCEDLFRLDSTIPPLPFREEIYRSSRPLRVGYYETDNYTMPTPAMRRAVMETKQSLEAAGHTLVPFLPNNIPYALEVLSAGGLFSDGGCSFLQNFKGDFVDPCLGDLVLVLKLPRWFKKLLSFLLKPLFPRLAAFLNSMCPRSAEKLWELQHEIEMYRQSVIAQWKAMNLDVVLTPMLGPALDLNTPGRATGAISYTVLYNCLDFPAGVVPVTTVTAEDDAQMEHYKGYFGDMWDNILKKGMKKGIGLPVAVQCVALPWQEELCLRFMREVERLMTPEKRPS
Method: (§1) The in vivo test was performed according to the protocol described below. BRh indicates inhibition in central nervous tissue and LVh indicates inhibition in peripheral tissue, in this case liver.
(§2) The animals used for experiments were male NMRI mice (weighing 27-44 g) obtained from Interfauna Ibérica (Spain). Mice were kept 5 per cage, under controlled environmental conditions (12 hr light/dark cycle and room temperature 22±1° C.). Food and tap water were allowed ad libitum and the experiments were all carried out during daylight hours.
(§3) Animals were administered 30 mg/kg or 3 mg/kg compounds of the invention via oral route (8 ml/kg; compound suspended in 0.5% carboxymethylcellulose (CMC) or solubilized in water) or vehicle (controls) using animal feeding stainless steel curve needles (Perfectum, U.S.A.). Fifteen minutes before sacrifice animal were anesthetized with pentobarbital 60 mg/kg administered intraperitoneally. A fragment of liver, left lung lobe and brain without cerebellum were removed and put in plastic vials containing membrane buffer (3 mM MgCl2, 1 mM EDTA, 50 mM Tris HCl pH 7.4). Tissues were stored at −30° C. until analysis.
(§4) Animals were always fasted overnight before administration of compounds except for time points of >18 h, where food was removed on the morning of day of administration and the compound was administered in the afternoon of the same day. Animals were then given water but nothing else.
(§5) Tissues were thawed on ice and were homogenized in 10 volumes of membrane buffer (3 mM MgCl2, 1 mM EDTA, 50 mM Tris HCl pH 7.4) with either Potter-Elvejhem (brains—8 strokes at 500 rpm) or Heidolph Diax (livers—2 strokes at position 5 for 20 sec with 30 sec pauses).
(§6) Total protein in tissues was determined with the BioRad Protein Assay (BioRad) using a standard curve of BSA (50-250 μg/ml).
(§7) Reaction mix (total volume of 200 μl) contained: […] (2 μM AEA+5 nM ^3H-AEA), 0.1% fatty acid free BSA, 15 μg (brain), 5 μg (liver) or 50 μg (lung) protein, in 1 mM EDTA, 10 mM Tris pH 7.6. After a […] pre-incubation period at 37° C., reaction was started by the addition of the substrate solution (cold AEA+radiolabelled AEA+BSA). Reaction was carried out for 10 min (brain and lung) or […] (liver) before termination by the addition of 400 μl activated charcoal suspension (8 g charcoal in 32 ml 0.5 M HCl in continuous agitation). After a […] incubation period at room temperature with agitation, charcoal was sedimented by centrifugation in microfuge (10 min at 13000 rpm). 200 μl of the supernatant were added to 800 μl Optiphase Supermix scintillation cocktail previously distributed in 24-well plates. Counts per minute (cpm) were determined in a MicrobetaTriLux scintillation counter.
(§8) In each assay blanks (without protein) were prepared.
(§9) The percentage of remaining enzymatic activity was calculated in respect to controls and after blank subtraction.

FAAH [2] = biological target: T1, FAAH; assay: In vivo FAAH inhibition after oral dosing, remaining activity in liver homogenate (LVh, peripheral tissue); design: species or system NMRI mice; conditions: liver homogenate, low value = strong inhibitor; for In Vivo LVh 3 mg · kg · 8 h (remaining FAAH activity): 3 mg/kg oral; for In Vivo LVh 3 mg·kg 8 h (remaining FAAH activity, % of control): 8 h after dosing
Method: as §1, §2, §3, §4, §5, §6, §7, §8, §9

Row | Compound | In Vivo BRh 3 mg · kg · 8 h (remaining FAAH activity) (FAAH [1]) | In Vivo LVh 3 mg · kg · 8 h (remaining FAAH activity) (FAAH [2]) | In Vivo BRh 3 mg·kg 8 h (remaining FAAH activity, % of control) (FAAH [1]) | In Vivo LVh 3 mg·kg 8 h (remaining FAAH activity, % of control) (FAAH [2])
1 | CN(C(=O)n1cnc(-c2cccc(-c3cccc(C(N)=O)c3)c2)c1)C1CCN(Cc2ccccc2)CC1 [Compound 550, N-(1-benzylpiperidin-4-yl)-4-(3′-carbamoylbiphenyl-3-yl)-N-methyl-1H-imidazole-1-carboxamide] | 94.3 % of control | 5.7 % of control |  | 
2 | CN(C(=O)n1cnc(-c2ccc(-c3noc(=O)[nH]3)cc2)c1)C1CCCCC1 [Compound 551, N-cyclohexyl-N-methyl-4-(4-(5-oxo-4,5-dihydro-1,2,4-oxadiazol-3-yl)phenyl)-1H-imidazole-1-carboxamide] | 85.2 % of control | 3.8 % of control |  | 
3 | CCCN1CCC(N(C)C(=O)n2cnc(-c3cccc(C(=O)NO)c3)c2)CC1 [Compound 552, 4-(3-(hydroxycarbamoyl)phenyl)-N-methyl-N-(1-propylpiperidin-4-yl)-1H-imidazole-1-carboxamide] | 90.2 % of control | 45 % of control |  | 
4 | CN(C(=O)n1cnc(-c2cccc(NC(=N)N)c2)c1)C1CCCCC1.Cl [Compound 553, N-cyclohexyl-4-(3-guanidinophenyl)-N-methyl-1H-imidazole-1-carboxamide hydrochloride] | 72.3 % of control | 15.4 % of control |  | 
5 | CCCN1CCC(N(C)C(=O)n2cnc(-c3ccc(O)c(C(N)=O)c3)c2)CC1 [Compound 554, 4-(3-carbamoyl-4-hydroxyphenyl)-N-methyl-N-(1-propylpiperidin-4-yl)-1H-imidazole-1-carboxamide] | 102.2 % of control | 85.6 % of control |  | 
6 | CN(C(=O)n1cnc(-c2cccnc2)c1)C1CCN(CC(=O)O)CC1 [Compound 558, 2-(4-(N-methyl-4-(pyridin-3-yl)-1H-imidazole-1-carboxamido)piperidin-1-yl)acetic acid] | 83.1 % of control | 91.1 % of control |  | 
7 | Br.CCN1CCC(N(C)C(=O)n2cnc(-c3ccc(F)c(O)c3)c2)CC1 [Compound 561, N-(1-ethylpiperidin-4-yl)-4-(4-fluoro-3-hydroxyphenyl)-N-methyl-1H-imidazole-1-carboxamide hydrobromide] | 82.2 % of control | 78.6 % of control |  | 
8 | CN(C(=O)n1cnc(-c2cccc(C(=O)NO)c2)c1)[C@H]1CC[C@H](O)CC1 [Compound 566, 4-(3-(hydroxycarbamoyl)phenyl)-N-((1r,4r)-4-hydroxycyclohexyl)-N-methyl-1H-imidazole-1-carboxamide] | 88.5 % of control | 69.8 % of control |  | 
9 | COc1ccc(-c2cn(C(=O)N3COCC3(C)C)cn2)cc1N [Compound no. 356, (4-(3-amino-4-methoxyphenyl)-1H-imidazol-1-yl)(4,4-dimethyloxazolidin-3-yl)methanone] |  |  | 6.5 % of control | 9.4 % of control
10 | CC1(C)COCN1C(=O)n1cnc(-c2ccc(O)c(N)c2)c1.Cl [Compound no. 358, (4-(3-amino-4-hydroxyphenyl)-1H-imidazol-1-yl)(4,4-dimethyloxazolidin-3-yl)methanone hydrochloride] |  |  | 117.1 % of control | 81.2 % of control
11 | CC1(C)COCN1C(=O)n1nnc2cccnc21 [Compound no. 368, (3H-[1,2,3]triazolo[4,5-b]pyridin-3-yl)(4,4-dimethyloxazolidin-3-yl)methanone] |  |  | 4.9 % of control | 9.6 % of control
12 | CN(C(=O)n1cnc(-c2ccc(S(N)(=O)=O)cc2)c1)C1CCCCC1 [Compound no. 376, N-cyclohexyl-N-methyl-4-(4-sulfamoylphenyl)-1H-imidazole-1-carboxamide] |  |  | 95.3 % of control | 5.7 % of control
13 | CN(C(=O)n1cnc(-c2ccc(-c3nn[nH]n3)cc2)c1)C1CCCCC1 [Compound no. 380, 4-(4-(2H-tetrazol-5-yl)phenyl)-N-cyclohexyl-N-methyl-1H-imidazole-1-carboxamide] |  |  | 77.3 % of control | 51.3 % of control
14 | CN(C(=O)n1cnc(-c2ccc(/C(N)=N/O)cc2)c1)C1CCCCC1 [Compound no. 406, (Z)—N-cyclohexyl-4-(4-(N′-hydroxycarbamimidoyl)phenyl)-N-methyl-1H-imidazole-1-carboxamide] |  |  | 66.8 % of control | 16.3 % of control
15 | CN(C(=O)n1cnc(-c2ccc(S(=O)(=O)N3CCC(OCc4ccccc4)CC3)cc2)c1)C1CCCCC1 [Compound no. 415, 4-(4-(4-(benzyloxy)piperidin-1-ylsulfonyl)phenyl)-N-cyclohexyl-N-methyl-1H-imidazole-1-carboxamide] |  |  | 109.1 % of control | 95.4 % of control
16 | COc1ccc(-c2cn(C(=O)N(C)C3CCN(Cc4ccccc4)CC3)cn2)cc1 [Compound no. 419, N-(1-benzylpiperidin-4-yl)-4-(4-methoxyphenyl)-N-methyl-1H-imidazole-1-carboxamide] |  |  | 0.8 % of control | 1 % of control
17 | CN(C(=O)n1cnc(-c2ccc(S(C)(=O)=O)cc2)c1)C1CCCCC1 [Compound no. 422, N-cyclohexyl-N-methyl-4-(4-(methylsulfonyl)phenyl)-1H-imidazole-1-carboxamide] |  |  | 1.7 % of control | 2.7 % of control
18 | CN(C(=O)n1cnc(-c2cccc(C(=O)NO)c2)c1)C1CCN(Cc2ccccc2)CC1 [Compound no. 423, N-(1-benzylpiperidin-4-yl)-4-(3-(hydroxycarbamoyl)phenyl)-N-methyl-1H-imidazole-1-carboxamide] |  |  | 90 % of control | 2.1 % of control
19 | CN(C(=O)n1cnc(-c2cccc(C(=O)NO)c2)c1)C1CCCCC1 [Compound no. 424, N-cyclohexyl-4-(3-(hydroxycarbamoyl)phenyl)-N-methyl-1H-imidazole-1-carboxamide] |  |  | 1 % of control | 0.5 % of control
20 | CN(C(=O)n1cnc(-c2ccc(NCc3ccccc3)c([N+](=O)[O-])c2)c1)C1CCCCC1 [Compound no. 425, 4-(4-(benzylamino)-3-nitrophenyl)-N-cyclohexyl-N-methyl-1H-imidazole-1-carboxamide] |  |  | 111.4 % of control | 104.6 % of control
